Results on 17 compounds are retold here after patent US20250230147A1, “LACTAMS AS CBL-B INHIBITORS” (Genentech, Inc., priority 2021, published 2025).

Usually IC50 stands for the concentration at which inhibition is half-maximal. Read a low IC50 as inhibition by little substance.

One assay deals with Cbl-b (Homo sapiens (Human), UniProt Q13191). The assay can be described thus: Cbl-b LCK Ub TR-FRET assay (Cbl-b Lck HTRF). The assay is classed as biochemical. On the procedure:
Compounds were 3-fold serially diluted in DMSO in a 384-well polypropylene plate (#P-05525-BC; Labcyte) to generate a source plate with 10 concentrations of each compound, top concentration=2 mM. 80 nL of DMSO or compounds were transferred to each well of a black 384-well ProxiPlate (#6008260; PerkinElmer) using a Labcyte Echo. 1×assay buffer (50 mM HEPES pH7.0, 100 mM NaCl, 0.01% BSA, 0.01% Triton-X100, 1 mM DTT), 2×enzyme solution (16 nM Biotin-Cbl-b or 12 nM Biotin-c-Cbl in 1× assay buffer), 2×kinase mixture (120 nM His-LCK, 1 mM ATP, 10 mM MgCl2 in assay buffer) and 2.33×detection mixture (4.66×solution 1: 163 nM Anti-HA-D2 antibody (#610HADAB; PerkinElmer), 27.96 nM Streptavidin-EU (#AD0062; PerkinElmer), 1.398 mM EDTA in 1×assay buffer+4.66×solution 2: 2.796 μM UBE2D2/Methylated-HA-Ubiquitin thioester adduct (BostonBiochem) in 1×assay buffer) were prepared. 4 μL of 2× enzyme solution was added to each well containing compound, briefly centrifuged to mix, and incubated for 60 min at room temperature. 4 μL of 2× kinase mixture was added, briefly centrifuged to mix, and incubated for 90 min. at room temperature. 6 μL of detection mixture was added to all wells and briefly centrifuged before incubating for 20 min at room temperature. Plates were read for TR-FRET using an Envision at excitation 340 nm, emission at 615 and 665 nm, 4 flashes per well. IC50 was generated using no LCK as the low control and DMSO as the high control.
Cbl-b Lck HTRF data in Table 7 is measured according to Example 76 herein; C-cbl Lck HTRF data is measured according to Example 76 herein.
For orientation: TR-FRET usually uses a lanthanide donor and a delayed reading to cut background.

The next assay has as its target c-Cbl (Homo sapiens (Human), UniProt P22681). In words: C-Cbl LCK Ub TR-FRET assay (c-cbl Lck HTRF). In kind it is biochemical. To be noted: for (fold-selectivity): C-cbl Lck HTRF IC50 relative to Cbl-b Lck HTRF IC50. Here is the method:
6 μL of detection mixture was added to all wells and briefly centrifuged before incubating for 20 min at room temperature. […] IC50 was generated using no LCK as the low control and DMSO as the high control.

c-Cbl, sequence (P22681 47-435): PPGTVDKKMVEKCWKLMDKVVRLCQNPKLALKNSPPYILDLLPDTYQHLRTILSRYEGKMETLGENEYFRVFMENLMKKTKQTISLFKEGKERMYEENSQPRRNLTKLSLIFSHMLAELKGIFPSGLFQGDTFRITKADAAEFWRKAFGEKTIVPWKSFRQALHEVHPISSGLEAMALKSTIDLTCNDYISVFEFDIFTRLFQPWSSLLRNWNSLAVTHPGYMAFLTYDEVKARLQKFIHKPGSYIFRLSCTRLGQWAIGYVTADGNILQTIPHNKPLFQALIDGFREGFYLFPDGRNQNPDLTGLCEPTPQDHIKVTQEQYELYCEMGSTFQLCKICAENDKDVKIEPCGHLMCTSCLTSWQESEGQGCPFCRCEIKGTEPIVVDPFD
Cbl-b, sequence (Q13191 40-426): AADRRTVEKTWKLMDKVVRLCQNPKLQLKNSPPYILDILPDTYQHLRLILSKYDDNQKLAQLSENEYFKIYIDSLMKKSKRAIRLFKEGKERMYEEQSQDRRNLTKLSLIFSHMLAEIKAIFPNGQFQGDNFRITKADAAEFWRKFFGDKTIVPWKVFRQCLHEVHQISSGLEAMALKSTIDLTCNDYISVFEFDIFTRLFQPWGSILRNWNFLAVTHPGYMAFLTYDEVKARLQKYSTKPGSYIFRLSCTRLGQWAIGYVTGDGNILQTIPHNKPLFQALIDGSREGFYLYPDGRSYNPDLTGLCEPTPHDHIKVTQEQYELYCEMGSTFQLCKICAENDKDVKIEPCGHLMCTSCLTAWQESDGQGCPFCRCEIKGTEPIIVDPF

`CCCc1cc(C2(Cc3nncn3C)CCC2)cc(N2Cc3c(cc(CNC4(C)CCC4)cc3C(F)(F)F)C2=O)n1` [Compound 343, 2-(4-(1-((4-methyl-4H-1,2,4-triazol-3-yl)methyl)cyclobutyl)-6-propylpyridin-2-yl)-6-(((1-methylcyclobutyl)amino)methyl)-4-(trifluoromethyl)isoindolin-1-one] registered an IC50 against Cbl-b of 13 nM. For the same compound, at c-Cbl, the IC50 came out at 9.5 nM and the “(fold-selectivity)” value is “(0.74x)”.
As for `Cn1cnnc1CC1(c2cc(NCCN3CCCC3=O)nc(N3Cc4c(cc(CNC5(C)CCC5)cc4C(F)(F)F)C3=O)c2)CCC1` [Compound 338, 2-(4-(1-((4-methyl-4H-1,2,4-triazol-3-yl)methyl)cyclobutyl)-6-((2-(2-oxopyrrolidin-1-yl)ethyl)amino)pyridin-2-yl)-6-(((1-methylcyclobutyl)amino)methyl)-4-(trifluoromethyl)isoindolin-1-one], the IC50 on Cbl-b stood at 130 nM. In addition, on c-Cbl, the IC50 was 140 nM and the “(fold-selectivity)” value was “(1.1x)”.
As to `Cn1cnnc1[C@H](F)C1(c2cccc(N3Cc4c(cc(CN5CC(C)(C)C5)cc4C(F)(F)F)C3=O)c2)COC1` [Compound 72, (R)-6-((3,3-dimethylazetidin-1-yl)methyl)-2-(3-(3-(fluoro(4-methyl-4H-1,2,4-triazol-3-yl)methyl)oxetan-3-yl)phenyl)-4-(trifluoromethyl)isoindolin-1-one], on Cbl-b, the IC50 worked out at 55 nM. Further, at c-Cbl, the IC50 was determined as 110 nM and the “(fold-selectivity)” value was found to be 2.1x.
As to `CCNc1cc(C2(Cc3nncn3C)COC2)cc(N2Cc3c(cc(CNC4(C)CCC4)cc3C(F)(F)F)C2=O)n1` [Compound 290, 2-(6-(ethylamino)-4-(3-((4-methyl-4H-1,2,4-triazol-3-yl)methyl)oxetan-3-yl)pyridin-2-yl)-6-(((1-methylcyclobutyl)amino)methyl)-4-(trifluoromethyl)isoindolin-1-one], the figures for the IC50 on Cbl-b and against c-Cbl were 10 nM and 5.4 nM, respectively. Moreover, the “(fold-selectivity)” value on c-Cbl is listed as “(0.54x)”.
Consider `CCC1(O)CN(Cc2cc3c(c(C(F)(F)F)c2)CN(c2cccc(C4([C@H](F)c5nncn5C)COC4)c2)C3=O)C1` [Compound 168, (S)-6-((3-ethyl-3-hydroxyazetidin-1-yl)methyl)-2-(3-(3-(fluoro(4-methyl-4H-1,2,4-triazol-3-yl)methyl)oxetan-3-yl)phenyl)-4-(trifluoromethyl)isoindolin-1-one], for which the IC50 amounted to 180 nM on Cbl-b and 380 nM against c-Cbl. Further, the “(fold-selectivity)” value on c-Cbl is given as 2.1x.
Regarding `CCNc1cc(C2(Cc3nncn3C)COC2)cc(N2Cc3c(cc(CN4CCN(C)C[C@@H]4C(C)C)cc3C(F)(F)F)C2=O)n1` [Compound 291, (S)-2-(6-(ethylamino)-4-(3-((4-methyl-4H-1,2,4-triazol-3-yl)methyl)oxetan-3-yl)pyridin-2-yl)-6-((2-isopropyl-4-methylpiperazin-1-yl)methyl)-4-(trifluoromethyl)isoindolin-1-one], the IC50 against Cbl-b stood at 12 nM. Further, at c-Cbl, the IC50 was 8.2 nM and the “(fold-selectivity)” value is “(0.69x)”.
`Cn1cnnc1[C@H](F)C1(c2cccc(N3Cc4c(Br)cc(CNC5(C)CCC5)cc4C3=O)c2)COC1` [Compound 471, (R)-4-bromo-2-(3-(3-(fluoro(4-methyl-4H-1,2,4-triazol-3-yl)methyl)oxetan-3-yl)phenyl)-6-(((1-methylcyclobutyl)amino)methyl) isoindolin-1-one] displayed an IC50 on Cbl-b of 8.2 nM. On c-Cbl, half-maximal inhibition (IC50) was put at 6.8 nM and the “(fold-selectivity)” value was “(0.83x)”.
For the compound `CC(C)[C@H]1CN(C)CCN1Cc1cc(Cl)c2c(c1)C(=O)N(c1cccc(C3(Cc4nncn4C)CC(F)(F)C3)c1)C2` [Compound 281, (S)-4-chloro-2-(3-(3,3-difluoro-1-((4-methyl-4H-1,2,4-triazol-3-yl)methyl)cyclobutyl)phenyl)-6-((2-isopropyl-4-methylpiperazin-1-yl)methyl)isoindolin-1-one], the IC50 against Cbl-b was 16 nM; on c-Cbl, 11 nM. Moreover, on c-Cbl, the “(fold-selectivity)” value was “(0.68x)”.
For `Cn1cnnc1CC1(c2cc(NCCC(F)(F)F)nc(N3Cc4c(cccc4C(F)(F)F)C3=O)c2)COC1` [Compound 488, 2-(4-(3-((4-methyl-4H-1,2,4-triazol-3-yl)methyl)oxetan-3-yl)-6-((3,3,3-trifluoropropyl)amino)pyridin-2-yl)-4-(trifluoromethyl)isoindolin-1-one] the same measures were 1900 nM, 12500 nM and “(6.4x)”.
`CC(C)CNCc1cc2c(c(C(F)(F)F)c1)CN(c1cccc(C3([C@@H](F)c4nncn4C)CC(F)(F)C3)c1)C2=O` [Compound 451, (R)-2-(3-(3,3-difluoro-1-(fluoro(4-methyl-4H-1,2,4-triazol-3-yl)methyl)cyclobutyl)phenyl)-6-((isobutylamino)methyl)-4-(trifluoromethyl)isoindolin-1-one] had an IC50 against Cbl-b of 15 nM. On c-Cbl, the IC50 came to 10 nM and the “(fold-selectivity)” value is listed as “(0.71x)”.
For the compound `CC(C)[C@H]1CN(C)CCN1Cc1cc2c(c(C(F)(F)F)c1)CN(c1cc(C3([C@@H](F)c4nncn4C)CCC3)cc(NCCO)n1)C2=O` [Compound 233, 2-(4-(1-((R)-fluoro(4-methyl-4H-1,2,4-triazol-3-yl)methyl)cyclobutyl)-6-((2-hydroxyethyl)amino)pyridin-2-yl)-6-(((S)-2-isopropyl-4-methyl-piperazin-1-yl)methyl)-4-(trifluoromethyl)isoindolin-1-one], half-maximal inhibition on Cbl-b (IC50) required 8.3 nM. On c-Cbl, the midpoint of inhibition, the IC50, lay at 7.1 nM and the “(fold-selectivity)” value is “(0.94x)”.
At Cbl-b, `Cn1cnnc1[C@H](F)C1(c2cccc(N3Cc4c(cc(CN5CC6(CCC6)C5)cc4C(F)(F)F)C3=O)c2)COC1` [Compound 165, (R)-6-(2-azaspiro[3.3]heptan-2-ylmethyl)-2-(3-(3-(fluoro(4-methyl-4H-1,2,4-triazol-3-yl)methyl)oxetan-3-yl)phenyl)-4-(trifluoromethyl)isoindolin-1-one] registered an IC50 of 35 nM. On c-Cbl, the IC50 came out at 73 nM and the “(fold-selectivity)” value is reported as 2.1x.
In the same order, the values of `Cn1cnnc1[C@H](F)C1(c2cccc(N3Cc4c(cc(CNC5(C)CCC5)cc4C(F)(F)F)C3=O)c2)CC(F)(F)C1` [Compound 464, (R)-2-(3-(3,3-difluoro-1-(fluoro(4-methyl-4H-1,2,4-triazol-3-yl)methyl)cyclobutyl)phenyl)-6-(((1-methylcyclobutyl)amino)methyl)-4-(trifluoromethyl)isoindolin-1-one] are 12 nM, 12 nM and “(1.0x)”.
For the compound `CCN1CCN(Cc2cc3c(c(C(F)(F)F)c2)CN(c2cccc(C4([C@H](F)c5nncn5C)CC(F)(F)C4)c2)C3=O)[C@@H](C(C)C)C1` [Compound 461, 2-(3-(3,3-difluoro-1-((S)-fluoro(4-methyl-4H-1,2,4-triazol-3-yl)methyl)cyclobutyl)phenyl)-6-(((S)-4-ethyl-2-isopropylpiperazin-1-yl)methyl)-4-(trifluoromethyl)isoindolin-1-one], the IC50 at Cbl-b stood at 9.9 nM. At c-Cbl, half-maximal inhibition (IC50) was put at 8.2 nM and the “(fold-selectivity)” value is given as “(0.82x)”.
In turn, `CC(C)[C@H]1CN(C)CCN1Cc1cc2c(c(C(F)(F)F)c1)CN(c1cccc(C3(C(F)(F)c4nncn4C)CC(F)(F)C3)c1)C2=O` [Compound 432, (S)-2-(3-(1-(difluoro(4-methyl-4H-1,2,4-triazol-3-yl)methyl)-3,3-difluorocyclobutyl)phenyl)-6-((2-isopropyl-4-methylpiperazin-1-yl)methyl)-4-(trifluoromethyl)isoindolin-1-one] registered an IC50 against Cbl-b of 17 nM. Moreover, at c-Cbl, inhibition was half-maximal at 13 nM (IC50) and the “(fold-selectivity)” value is listed as “(0.78x)”.
Compound `Cn1cnnc1[C@H](F)C1(c2cccc(N3Cc4c(cc(CNC5(C)CCC5)cc4C(F)(F)F)C3=O)c2)COC1` [Compound 230, (R)-2-(3-(3-(fluoro(4-methyl-4H-1,2,4-triazol-3-yl)methyl)oxetan-3-yl)phenyl)-6-(((1-methylcyclobutyl)amino)methyl)-4-(trifluoromethyl)isoindolin-1-one] returned an IC50 on Cbl-b of 13 nM. For the same compound, at c-Cbl, inhibition was half-maximal at 11 nM (IC50) and the “(fold-selectivity)” value is on record as “(0.84x)”.
In the case of `Cn1cnnc1[C@H](F)C1(c2cccc(N3Cc4c(cc(CN5CC6(COC6)C5)cc4C(F)(F)F)C3=O)c2)COC1` [Compound 9, (R)-6-(2-oxa-6-azaspiro[3.3]heptan-6-ylmethyl)-2-(3-(3-(fluoro(4-methyl-4H-1,2,4-triazol-3-yl)methyl)oxetan-3-yl)phenyl)-4-(trifluoromethyl)isoindolin-1-one], the IC50 on Cbl-b was 160 nM; against c-Cbl it was 350 nM. Also, the “(fold-selectivity)” value on c-Cbl amounted to 2.1x.
